Assay results reported in PubChem BioAssay AID330 (DTP/NCI, 2004).
Toxic doses and inconclusive results are not listed.

Test system: P388 leukemia ip, CD2F1 mice, survival T/C
Experiment: NCI In Vivo Anticancer Drug Screen. Data for tumor model P388 Leukemia (intraperitoneal) in CD2F1 (CDF1) mice
Conditions: endpoint: median survival time, higher = longer survival
In short: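 Mice carrying the transplanted tumor received test compound or vehicle. Survival was recorded in each group, and the value is the treated-group measurement divided by that of the vehicle-treated control group.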

[1] = dose: 25.0 mg/kg/injection, schedule: Q01DX009 (ip), vehicle: saline with Tween-80
[2] = dose: 100.0 mg/kg/injection, schedule: Q04DX003 (ip), vehicle: Klucel (hydroxypropylcellulose) (HPC)
[3] = dose: 200.0 mg/kg/injection, schedule: Q04DX003 (ip), vehicle: Klucel (hydroxypropylcellulose) (HPC)
[4] = dose: 50.0 mg/kg/injection, schedule: Q01DX009 (ip), vehicle: saline
[5] = dose: 100.0 mg/kg/injection, schedule: Q01DX009 (ip), vehicle: saline
[6] = dose: 200.0 mg/kg/injection, schedule: Q01DX009 (ip), vehicle: saline
[7] = dose: 6.25 mg/kg/injection, schedule: Q01DX005 (ip), vehicle: Klucel (hydroxypropylcellulose) (HPC)
[8] = dose: 100.0 mg/kg/injection, schedule: Q01DX009 (ip), vehicle: saline with Tween-80
[9] = dose: 200.0 mg/kg/injection, schedule: Q01DX009 (ip), vehicle: saline with Tween-80
[10] = dose: 60.0 mg/kg/injection, schedule: Q01DX005 (ip), vehicle: saline with Tween-80
[11] = dose: 120.0 mg/kg/injection, schedule: Q01DX005 (ip), vehicle: saline with Tween-80
[12] = dose: 240.0 mg/kg/injection, schedule: Q01DX005 (ip), vehicle: saline with Tween-80

For Cc1cc(N(CCCl)CCCl)ccc1N=Nc1ccccc1C(=O)[O-].Cc1cc(N(CCCl)CCCl)ccc1N=Nc1ccccc1C(=O)[O-].[Cu+2], the T/C (dose: 12.0 mg/kg/injection, schedule: Q04DX003 (ip), vehicle: saline with Tween-80) was 150 % of control, the T/C (dose: 12.5 mg/kg/injection, schedule: Q01DX009 (ip), vehicle: saline with Tween-80) was 209 % of control and the T/C (dose: 12.5 mg/kg/injection, schedule: Q04DX003 (ip), vehicle: saline with Tween-80) was 154 % of control. The T/C [1] was 95 % of control, the T/C (dose: 25.0 mg/kg/injection, schedule: Q04DX003 (ip), vehicle: saline with Tween-80) was 195 % of control and the T/C (dose: 50.0 mg/kg/injection, schedule: Q04DX003 (ip), vehicle: saline with Tween-80) was 95 % of control. The T/C (dose: 375.0 micrograms/kg/injection, schedule: Q04DX003 (ip), vehicle: saline) was 109 % of control, the T/C (dose: 750.0 micrograms/kg/injection, schedule: Q04DX003 (ip), vehicle: saline) was 109 % of control and the T/C (dose: 1500.0 micrograms/kg/injection, schedule: Q04DX003 (ip), vehicle: saline) was 104 % of control.

O=c1n(-c2ccccc2)c(=O)n2n1C1C3C4C5C3C2C5(F)C41 (centres undefined) was tested, and the T/C [2] was 103 % of control and the T/C [3] was 104 % of control.

With N#Cc1c(N)sc(=S)c2c1CCCC2 the T/C [4] was 104 % of control, the T/C [5] was 95 % of control and the T/C [6] was 95 % of control.

For COC(=O)C1CC(C)N1C(C)C (centres undefined), the T/C (dose: 50.0 mg/kg/injection, schedule: Q01DX005 (ip), vehicle: saline) was 95 % of control, the T/C (dose: 100.0 mg/kg/injection, schedule: Q01DX005 (ip), vehicle: saline) was 97 % of control and the T/C (dose: 200.0 mg/kg/injection, schedule: Q01DX005 (ip), vehicle: saline) was 100 % of control.

For O=C1c2ccccc2N(Cc2cccc(F)c2)C2=NCCCC12 (centres undefined), the T/C (dose: 50.0 mg/kg/injection, schedule: Q01DX005 (ip), vehicle: Klucel (hydroxypropylcellulose) (HPC)) was 113 % of control, the T/C (dose: 100.0 mg/kg/injection, schedule: Q01DX005 (ip), vehicle: Klucel (hydroxypropylcellulose) (HPC)) was 116 % of control and the T/C (dose: 200.0 mg/kg/injection, schedule: Q01DX005 (ip), vehicle: Klucel (hydroxypropylcellulose) (HPC)) was 100 % of control.

NS(=O)(=O)c1ncnc2nc[nH]c12 was tested, and the T/C (dose: 10.0 mg/kg/injection, schedule: Q01DX009 (ip), vehicle: saline with Tween-80) was 112 % of control, the T/C (dose: 15.0 mg/kg/injection, schedule: Q01DX009 (ip), vehicle: saline with Tween-80) was 112 % of control and the T/C (dose: 30.0 mg/kg/injection, schedule: Q01DX009 (ip), vehicle: saline with Tween-80) was 90 % of control. For the same molecule, the T/C (dose: 60.0 mg/kg/injection, schedule: Q01DX009 (ip), vehicle: saline with Tween-80) was 104 % of control.

With Cc1cc(O)c2c(c1)C(=O)C(c1c(C)cc3c(c1O)C(=O)C1OC1C3=O)=CC2=O (centres undefined) the T/C (dose: 0.78 mg/kg/injection, schedule: Q01DX005 (ip), vehicle: Klucel (hydroxypropylcellulose) (HPC)) was 91 % of control, the T/C (dose: 1.56 mg/kg/injection, schedule: Q01DX005 (ip), vehicle: Klucel (hydroxypropylcellulose) (HPC)) was 106 % of control and the T/C (dose: 3.12 mg/kg/injection, schedule: Q01DX005 (ip), vehicle: Klucel (hydroxypropylcellulose) (HPC)) was 113 % of control. For the same molecule, the T/C [7] was 100 % of control.

With Clc1ccc(/C=C/c2ccnnc2)cc1 the T/C [4] was 106 % of control, the T/C [5] was 106 % of control and the T/C [6] was 91 % of control.

CCCCCCCCCCCCCCCCS(=O)CC(O)COC(=O)c1ccc(C(=O)OCC(O)CS(=O)CCCCCCCCCCCCCCCC)cc1 (centres undefined) was tested, and the T/C (dose: 25.0 mg/kg/injection, schedule: Q01DX009 (ip), vehicle: other) was 104 % of control, the T/C (dose: 50.0 mg/kg/injection, schedule: Q01DX009 (ip), vehicle: other) was 114 % of control and the T/C (dose: 100.0 mg/kg/injection, schedule: Q01DX009 (ip), vehicle: other) was 122 % of control.

With CCOC1=NN(c2ccccc2)C(=O)C1 the T/C [8] was 100 % of control, the T/C (dose: 100.0 mg/kg/injection, schedule: Q04DX003 (ip), vehicle: saline with Tween-80) was 95 % of control and the T/C [9] was 100 % of control. The T/C (dose: 200.0 mg/kg/injection, schedule: Q04DX003 (ip), vehicle: saline with Tween-80) was 95 % of control, the T/C (dose: 400.0 mg/kg/injection, schedule: Q01DX009 (ip), vehicle: saline with Tween-80) was 100 % of control and the T/C (dose: 400.0 mg/kg/injection, schedule: Q04DX003 (ip), vehicle: saline with Tween-80) was 95 % of control.

In the case of COC(=O)Cn1/c(=N\N=C\c2ccc([N+](=O)[O-])cc2)sc2ccccc21, the T/C (dose: 12.5 mg/kg/injection, schedule: Q01DX001 (ip), vehicle: saline with Tween-80) is reported as 86 % of control, the T/C (dose: 25.0 mg/kg/injection, schedule: Q01DX001 (ip), vehicle: saline with Tween-80) is reported as 86 % of control and the T/C (dose: 50.0 mg/kg/injection, schedule: Q01DX001 (ip), vehicle: saline with Tween-80) is reported as 92 % of control. The T/C (dose: 400.0 mg/kg/injection, schedule: Q01DX001 (ip), vehicle: saline with Tween-80) was 90 % of control.

CC(C)(CCC(=S)N1CCOCC1)c1ccccc1 was tested, and the T/C [1] was 111 % of control, the T/C (dose: 50.0 mg/kg/injection, schedule: Q01DX009 (ip), vehicle: saline with Tween-80) was 96 % of control and the T/C [8] was 105 % of control. The T/C [9] was 105 % of control.

O=S(=O)(Cl)C(F)(F)C(F)(F)C(F)(F)C(F)(F)F was tested, and the T/C [4] was 102 % of control, the T/C [5] was 103 % of control and the T/C [6] was 88 % of control.

For CN(C)c1ccc(/C=N/NC(=O)CC2CCCCC2)cc1, the T/C [10] was 100 % of control, the T/C [11] was 108 % of control and the T/C [12] was 102 % of control.

With O=C(O)C(Cc1ccc(O)cc1)NC(c1ccccc1)P(=O)(O)O (centres undefined) the T/C [10] was 108 % of control, the T/C [11] was 98 % of control and the T/C [12] was 99 % of control.

OC1OCC2CC3c4cc5c(cc4CCN3CC21)OCO5 (centres undefined) was tested, and the T/C (dose: 0.63 mg/kg/injection, schedule: Q01DX009 (ip), vehicle: distilled water + Tween-80) was 103 % of control, the T/C (dose: 1.25 mg/kg/injection, schedule: Q01DX009 (ip), vehicle: distilled water + Tween-80) was 109 % of control and the T/C (dose: 2.5 mg/kg/injection, schedule: Q01DX009 (ip), vehicle: distilled water + Tween-80) was 108 % of control. For the same molecule, the T/C (dose: 5.0 mg/kg/injection, schedule: Q01DX009 (ip), vehicle: distilled water + Tween-80) was 100 % of control, the T/C (dose: 10.0 mg/kg/injection, schedule: Q01DX009 (ip), vehicle: distilled water + Tween-80) was 103 % of control and the T/C (dose: 20.0 mg/kg/injection, schedule: Q01DX009 (ip), vehicle: distilled water + Tween-80) was 103 % of control.

In the case of Cc1nc(N)[nH]c(=O)c1CCCN=Cc1ccccc1, the T/C (dose: 60.0 mg/kg/injection, schedule: Q01DX005 (ip), vehicle: Klucel (hydroxypropylcellulose) (HPC)) is reported as 108 % of control, the T/C (dose: 120.0 mg/kg/injection, schedule: Q01DX005 (ip), vehicle: Klucel (hydroxypropylcellulose) (HPC)) is reported as 105 % of control and the T/C (dose: 240.0 mg/kg/injection, schedule: Q01DX005 (ip), vehicle: Klucel (hydroxypropylcellulose) (HPC)) is reported as 96 % of control.

For COC(=O)/C=C/CNC(C)C, the T/C (dose: 25.0 mg/kg/injection, schedule: Q01DX009 (ip), vehicle: water) was 101 % of control, the T/C (dose: 50.0 mg/kg/injection, schedule: Q01DX009 (ip), vehicle: water) was 99 % of control and the T/C (dose: 100.0 mg/kg/injection, schedule: Q01DX009 (ip), vehicle: water) was 108 % of control. For the same molecule, the T/C (dose: 200.0 mg/kg/injection, schedule: Q01DX009 (ip), vehicle: water) was 115 % of control and the T/C (dose: 400.0 mg/kg/injection, schedule: Q01DX009 (ip), vehicle: water) was 97 % of control.

CN(C(=O)C(Cl)Cl)c1ccc(-c2csc(-c3ccc(O)cc3)n2)cc1 was tested, and the T/C [2] was 100 % of control, the T/C [3] was 99 % of control and the T/C (dose: 400.0 mg/kg/injection, schedule: Q04DX003 (ip), vehicle: Klucel (hydroxypropylcellulose) (HPC)) was 99 % of control.

With CN(C)c1ccc(C(c2cc3c(cc2O)OCO3)N2CCCCC2)cc1 (centres undefined) the T/C [10] was 113 % of control and the T/C [11] was 121 % of control.

In the case of CNC(=O)OCC1=C(COC(=O)NC)C(=O)c2ccccc2C1=O, the T/C [7] is reported as 96 % of control, the T/C (dose: 12.5 mg/kg/injection, schedule: Q01DX005 (ip), vehicle: Klucel (hydroxypropylcellulose) (HPC)) is reported as 105 % of control and the T/C (dose: 25.0 mg/kg/injection, schedule: Q01DX005 (ip), vehicle: Klucel (hydroxypropylcellulose) (HPC)) is reported as 112 % of control.
